The first series is described as follows: Metabolic stability in human liver microsomes assessed as unbound intrinsic clearance at 1 uM measured upto 30 mins by LC-MS/MS analysis. Format: ADME, Microsome. The following applies: 0.5 h. In general terms: Microsomes from liver hold many membrane-bound enzymes, among them those of drug oxidation.
Consider `COc1cc(C(F)F)c(O[C@H]2CC[C@@](C)(C(=O)O)CC2)cc1C(=O)N[C@@H]1[C@H]2CC[C@H](C2)[C@@H]1C(=O)NCC1(C)CCC1`, for which the CL free amounted to 39 µL/min/mg.
The same measure, in the same setting: in the case of `COc1cc(F)c(O[C@H]2C[C@@](C)(C(=O)O)C2)cc1C(=O)N[C@@H]1[C@H]2CC[C@H](C2)[C@@H]1C(=O)NCC1(C)CCC1` it was 10 µL/min/mg; in that of `CC1(CNC(=O)[C@H]2[C@@H]3CC[C@@H](C3)[C@H]2NC(=O)c2cc(O[C@H]3CC[C@@](C)(C(=O)O)CC3)c(F)cc2OC(F)F)CCC1`, 59 µL/min/mg; in that of `CCc1cc(OC)c(C(=O)N[C@@H]2[C@H]3CC[C@H](C3)[C@@H]2C(=O)NCC2(C)CCC2)cc1O[C@H]1CC[C@@](C)(C(=O)O)CC1`, 83 µL/min/mg.
The same measure, in the same setting: in the case of `COc1cc(S(C)(=O)=O)c(O[C@H]2CC[C@@](C)(C(=O)O)CC2)cc1C(=O)N[C@@H]1[C@H]2CC[C@H](C2)[C@@H]1C(=O)NCC1(C)CCC1` it was 14 µL/min/mg.
In the case of `CC1(CNC(=O)[C@H]2[C@@H]3CC[C@@H](C3)[C@H]2NC(=O)c2cc(O[C@H]3CC[C@@](C)(C(=O)O)CC3)c(F)cc2O)CCC1`, the CL free came out at 17 µL/min/mg.
On the same count and under the same terms, under `COc1cc(Cl)c(O[C@H]2CC[C@@](C)(C(=O)O)CC2)cc1C(=O)N[C@@H]1[C@@H]2CC[C@@H](C2)[C@@H]1C(=O)NCC1(C)CCC1` stands 100 µL/min/mg; under `COc1c(Cl)cc(O[C@H]2CC[C@@](C)(C(=O)O)CC2)cc1C(=O)N[C@@H]1[C@H]2CC[C@H](C2)[C@@H]1C(=O)NCC1(C)CCC1`, 147 µL/min/mg; under `COc1cc(Cl)c(O[C@H]2CC[C@@](C)(C(=O)O)CC2)cc1C(=O)N[C@@H]1[C@H]2CC[C@H](C2)[C@@H]1C(=O)NCC1(C)CCC1`, 64 µL/min/mg.
On the same count and under the same terms, in the case of `CC1(CNC(=O)[C@H]2[C@@H]3CC[C@@H](C3)[C@H]2NC(=O)c2cc(O[C@H]3CC[C@@](C)(C(=O)O)CC3)c(F)cc2F)CCC1` it was 49 µL/min/mg.

A short description of another series: Metabolic stability in human hepatocytes assessed as intrinsic clearance measured per 10^6 viable cells/ml at 1 uM measured upto 120 mins by LC-MS/MS analysis. Format: ADME, cell-based, Hepatocyte. The following applies: read-out: CLH.
As for `COc1cc(C(F)F)c(O[C@H]2CC[C@@](C)(C(=O)O)CC2)cc1C(=O)N[C@@H]1[C@H]2CC[C@H](C2)[C@@H]1C(=O)NCC1(C)CCC1`, the hepatocyte CLint at 1 µM is 5.1 µL/min/1e6 cells.
Still for that read-out and setting: in the case of `COc1cc(F)c(O[C@H]2C[C@@](C)(C(=O)O)C2)cc1C(=O)N[C@@H]1[C@H]2CC[C@H](C2)[C@@H]1C(=O)NCC1(C)CCC1` it was 4.3 µL/min/1e6 cells; in that of `CC1(CNC(=O)[C@H]2[C@@H]3CC[C@@H](C3)[C@H]2NC(=O)c2cc(O[C@H]3CC[C@@](C)(C(=O)O)CC3)c(F)cc2OC(F)F)CCC1`, 26 µL/min/1e6 cells; in that of `CCc1cc(OC)c(C(=O)N[C@@H]2[C@H]3CC[C@H](C3)[C@@H]2C(=O)NCC2(C)CCC2)cc1O[C@H]1CC[C@@](C)(C(=O)O)CC1`, 3.9 µL/min/1e6 cells.
The same measure, in the same setting: under `COc1cc(S(C)(=O)=O)c(O[C@H]2CC[C@@](C)(C(=O)O)CC2)cc1C(=O)N[C@@H]1[C@H]2CC[C@H](C2)[C@@H]1C(=O)NCC1(C)CCC1` stands 1.2 µL/min/1e6 cells; under `CC1(CNC(=O)[C@H]2[C@@H]3CC[C@@H](C3)[C@H]2NC(=O)c2cc(O[C@H]3CC[C@@](C)(C(=O)O)CC3)c(F)cc2O)CCC1`, 58 µL/min/1e6 cells.
Still for that read-out and setting: in the case of `COc1cc(Cl)c(O[C@H]2CC[C@@](C)(C(=O)O)CC2)cc1C(=O)N[C@@H]1[C@@H]2CC[C@@H](C2)[C@@H]1C(=O)NCC1(C)CCC1` it was 49 µL/min/1e6 cells; in that of `COc1c(Cl)cc(O[C@H]2CC[C@@](C)(C(=O)O)CC2)cc1C(=O)N[C@@H]1[C@H]2CC[C@H](C2)[C@@H]1C(=O)NCC1(C)CCC1`, 13 µL/min/1e6 cells; in that of `COc1cc(Cl)c(O[C@H]2CC[C@@](C)(C(=O)O)CC2)cc1C(=O)N[C@@H]1[C@H]2CC[C@H](C2)[C@@H]1C(=O)NCC1(C)CCC1`, 4.8 µL/min/1e6 cells.
As to `CC1(CNC(=O)[C@H]2[C@@H]3CC[C@@H](C3)[C@H]2NC(=O)c2cc(O[C@H]3CC[C@@](C)(C(=O)O)CC3)c(F)cc2F)CCC1`, the hepatocyte CLint at 1 µM came to 6.7 µL/min/1e6 cells.

The next series can be described thus: Metabolic stability in human liver microsomes assessed as intrinsic clearance at 1 uM measured upto 30 mins by LC-MS/MS analysis. Format: ADME, Microsome. The following applies: read-out: CLH.
For the compound `COc1cc(C(F)F)c(O[C@H]2CC[C@@](C)(C(=O)O)CC2)cc1C(=O)N[C@@H]1[C@H]2CC[C@H](C2)[C@@H]1C(=O)NCC1(C)CCC1`, the microsomal CLint at 1 µM stood at 23 µL/min/mg.
Consider `COc1cc(F)c(O[C@H]2C[C@@](C)(C(=O)O)C2)cc1C(=O)N[C@@H]1[C@H]2CC[C@H](C2)[C@@H]1C(=O)NCC1(C)CCC1`, for which the microsomal CLint at 1 µM is 7.6 µL/min/mg.
As for `CC1(CNC(=O)[C@H]2[C@@H]3CC[C@@H](C3)[C@H]2NC(=O)c2cc(O[C@H]3CC[C@@](C)(C(=O)O)CC3)c(F)cc2OC(F)F)CCC1`, the microsomal CLint at 1 µM came out at 34 µL/min/mg.
Consider `CCc1cc(OC)c(C(=O)N[C@@H]2[C@H]3CC[C@H](C3)[C@@H]2C(=O)NCC2(C)CCC2)cc1O[C@H]1CC[C@@](C)(C(=O)O)CC1`, for which the microsomal CLint at 1 µM is 44 µL/min/mg.
Same read-out and setting: under `COc1cc(S(C)(=O)=O)c(O[C@H]2CC[C@@](C)(C(=O)O)CC2)cc1C(=O)N[C@@H]1[C@H]2CC[C@H](C2)[C@@H]1C(=O)NCC1(C)CCC1` stands 11 µL/min/mg; under `CC1(CNC(=O)[C@H]2[C@@H]3CC[C@@H](C3)[C@H]2NC(=O)c2cc(O[C@H]3CC[C@@](C)(C(=O)O)CC3)c(F)cc2O)CCC1`, 12.6 µL/min/mg.
The same measure, in the same setting: under `COc1cc(Cl)c(O[C@H]2CC[C@@](C)(C(=O)O)CC2)cc1C(=O)N[C@@H]1[C@@H]2CC[C@@H](C2)[C@@H]1C(=O)NCC1(C)CCC1` stands 20 µL/min/mg; under `COc1c(Cl)cc(O[C@H]2CC[C@@](C)(C(=O)O)CC2)cc1C(=O)N[C@@H]1[C@H]2CC[C@H](C2)[C@@H]1C(=O)NCC1(C)CCC1`, 81 µL/min/mg.
Still for that read-out and setting: in the case of `COc1cc(Cl)c(O[C@H]2CC[C@@](C)(C(=O)O)CC2)cc1C(=O)N[C@@H]1[C@H]2CC[C@H](C2)[C@@H]1C(=O)NCC1(C)CCC1` it was 36 µL/min/mg.
`CC1(CNC(=O)[C@H]2[C@@H]3CC[C@@H](C3)[C@H]2NC(=O)c2cc(O[C@H]3CC[C@@](C)(C(=O)O)CC3)c(F)cc2F)CCC1`: the microsomal CLint at 1 µM worked out at 37 µL/min/mg.

A further series can be described thus: Metabolic stability in human hepatocytes assessed as unbound intrinsic clearance measured per 10^6 viable cells/ml at 1 uM measured upto 120 mins by LC-MS/MS analysis. Format: ADME, cell-based, Hepatocyte. The following applies: 2 h.
Consider `COc1cc(C(F)F)c(O[C@H]2CC[C@@](C)(C(=O)O)CC2)cc1C(=O)N[C@@H]1[C@H]2CC[C@H](C2)[C@@H]1C(=O)NCC1(C)CCC1`, for which the CL free was 11 µL/min.
Still for that read-out and setting: under `COc1cc(F)c(O[C@H]2C[C@@](C)(C(=O)O)C2)cc1C(=O)N[C@@H]1[C@H]2CC[C@H](C2)[C@@H]1C(=O)NCC1(C)CCC1` stands 5.4 µL/min; under `CC1(CNC(=O)[C@H]2[C@@H]3CC[C@@H](C3)[C@H]2NC(=O)c2cc(O[C@H]3CC[C@@](C)(C(=O)O)CC3)c(F)cc2OC(F)F)CCC1`, 52 µL/min.
With `CCc1cc(OC)c(C(=O)N[C@@H]2[C@H]3CC[C@H](C3)[C@@H]2C(=O)NCC2(C)CCC2)cc1O[C@H]1CC[C@@](C)(C(=O)O)CC1`, the CL free was 9.1 µL/min.
The same measure, in the same setting: under `COc1cc(S(C)(=O)=O)c(O[C@H]2CC[C@@](C)(C(=O)O)CC2)cc1C(=O)N[C@@H]1[C@H]2CC[C@H](C2)[C@@H]1C(=O)NCC1(C)CCC1` stands 1.7 µL/min; under `CC1(CNC(=O)[C@H]2[C@@H]3CC[C@@H](C3)[C@H]2NC(=O)c2cc(O[C@H]3CC[C@@](C)(C(=O)O)CC3)c(F)cc2O)CCC1`, 105 µL/min; under `COc1cc(Cl)c(O[C@H]2CC[C@@](C)(C(=O)O)CC2)cc1C(=O)N[C@@H]1[C@@H]2CC[C@@H](C2)[C@@H]1C(=O)NCC1(C)CCC1`, 153 µL/min.
Take `COc1c(Cl)cc(O[C@H]2CC[C@@](C)(C(=O)O)CC2)cc1C(=O)N[C@@H]1[C@H]2CC[C@H](C2)[C@@H]1C(=O)NCC1(C)CCC1`: the CL free worked out at 31 µL/min.
As to `COc1cc(Cl)c(O[C@H]2CC[C@@](C)(C(=O)O)CC2)cc1C(=O)N[C@@H]1[C@H]2CC[C@H](C2)[C@@H]1C(=O)NCC1(C)CCC1`, the CL free came out at 14 µL/min.
The same measure, in the same setting: in the case of `CC1(CNC(=O)[C@H]2[C@@H]3CC[C@@H](C3)[C@H]2NC(=O)c2cc(O[C@H]3CC[C@@](C)(C(=O)O)CC3)c(F)cc2F)CCC1` it was 10 µL/min.

Another series in a line: Octanol/water partition coefficient, logD of the compound at pH 7.4 by shake flask method. Format: physicochemical.
Details: not given
`COc1cc(C(F)F)c(O[C@H]2CC[C@@](C)(C(=O)O)CC2)cc1C(=O)N[C@@H]1[C@H]2CC[C@H](C2)[C@@H]1C(=O)NCC1(C)CCC1`: the logD (usually the decadic logarithm of the distribution of all forms, ionised or not, between an organic phase and buffer at a given pH) was determined as 3.8.
Still for that read-out and setting: under `COc1cc(F)c(O[C@H]2C[C@@](C)(C(=O)O)C2)cc1C(=O)N[C@@H]1[C@H]2CC[C@H](C2)[C@@H]1C(=O)NCC1(C)CCC1` stands 2.
Compound `CC1(CNC(=O)[C@H]2[C@@H]3CC[C@@H](C3)[C@H]2NC(=O)c2cc(O[C@H]3CC[C@@](C)(C(=O)O)CC3)c(F)cc2OC(F)F)CCC1` returned a logD of 3.3.
The same measure, in the same setting: in the case of `CCc1cc(OC)c(C(=O)N[C@@H]2[C@H]3CC[C@H](C3)[C@@H]2C(=O)NCC2(C)CCC2)cc1O[C@H]1CC[C@@](C)(C(=O)O)CC1` it was 4; in that of `COc1cc(S(C)(=O)=O)c(O[C@H]2CC[C@@](C)(C(=O)O)CC2)cc1C(=O)N[C@@H]1[C@H]2CC[C@H](C2)[C@@H]1C(=O)NCC1(C)CCC1`, 1.9; in that of `CC1(CNC(=O)[C@H]2[C@@H]3CC[C@@H](C3)[C@H]2NC(=O)c2cc(O[C@H]3CC[C@@](C)(C(=O)O)CC3)c(F)cc2O)CCC1`, 3.3.
The same measure, in the same setting: in the case of `COc1cc(Cl)c(O[C@H]2CC[C@@](C)(C(=O)O)CC2)cc1C(=O)N[C@@H]1[C@@H]2CC[C@@H](C2)[C@@H]1C(=O)NCC1(C)CCC1` it was 3.6; in that of `COc1c(Cl)cc(O[C@H]2CC[C@@](C)(C(=O)O)CC2)cc1C(=O)N[C@@H]1[C@H]2CC[C@H](C2)[C@@H]1C(=O)NCC1(C)CCC1`, 3.3.
The same measure, in the same setting: in the case of `COc1cc(Cl)c(O[C@H]2CC[C@@](C)(C(=O)O)CC2)cc1C(=O)N[C@@H]1[C@H]2CC[C@H](C2)[C@@H]1C(=O)NCC1(C)CCC1` it was 3.5; in that of `CC1(CNC(=O)[C@H]2[C@@H]3CC[C@@H](C3)[C@H]2NC(=O)c2cc(O[C@H]3CC[C@@](C)(C(=O)O)CC3)c(F)cc2F)CCC1`, 2.9.

The values above are taken from ChEMBL document CHEMBL5518236, “Discovery of Clinical Candidate AZD5462, a Selective Oral Allosteric RXFP1 Agonist for Treatment of Heart Failure” (J Med Chem, 2024).
